Results published in patent US9945862B2, “Biomarkers for predicting and assessing responsiveness of thyroid and kidney cancer subjects to lenvatinib compounds” (Eisai R&D Management Co., Ltd., priority 2011, dated 2018).
“Also recorded” adds a separate entry of the source.

Assays:
[1] = test system: differentiated thyroid cancer patients; assay: Progression free survival of E7080-treated DTC patients (Logrank test, Cox proportional hazards model with or without PK covariate); assay type: in vivo, human; details: patients with mutations in NRAS alone or in either NRAS or KRAS vs wild type for NRAS or KRAS
Protocol: The period during which a patient takes E7080 was artificially divided into different Cycles for ease of evaluation and tracking. Patients received E7080 at a dose of 24 mg oral once daily in 28 day cycles. For analysis purposes, assessments of clinical outcomes were performed at the time of the 9 month and at 14 month minimum follow-up. For the E7080 Thyroid Cancer trial, each Cycle is 28 days (4 weeks) so Day 1-28 is cycle 1; Day 29 is Day 1 of Cycle 2; and Day 57 is Day 1 of Cycle 3. Blood samples were collected for pharmacokinetic (PK) analysis on Cycle 1 Days 1 and 8, Cycle 2 Day 1, and Cycle 3 Day 1. A total of 9 samples per patient were collected as follows: Cycle 1 Day 1: immediately prior to the dose of E7080, and at 0.5 and 2 hours following the first dose of E7080 (post-dose); Cycle 1 Day 8: immediately prior to the dose of E7080; Cycle 2 Day 1: immediately prior to the dose of E7080, 0.5 and 2 hours post-dose; Cycle 3 Day 1: immediately prior to the dose of E7080 and 2 hours post-dose. For analysis of progression free survival, PK parameter was used as a covariate in Cox proportional hazards model. […]
The association of gene mutations with progression free survival of treated patients was analyzed first by performing Logrank test and then using Cox proportional hazards model with or without covariates. […]

[2] = test system: differentiated thyroid cancer patients; assay: Multivariate prediction models of PFS combining mutations and blood biomarkers (Cox proportional hazards model, hazard threshold, log rank test); assay type: in vivo, human; details: pre-treatment
Protocol: All factors (i.e., mutations, thyroglobulin, cytokine, chemokine and angiogenic factors) were used as independent variables of interest, that is, as biomarker candidates. PFS was used as a dependent variable, that is, as one of the clinical outcomes, in this analysis. Firstly, all factors were screened according to p-values calculated by Cox proportional hazards model with single factor. Secondly, all combinations of the screened factors were tested by Cox proportional hazards model to find significant factors in all combinations of the factors. Combinations in which all factors were significant were chosen for further analysis. Hazard functions of the combinations of factors defined by their coefficients were obtained from this analysis. Each patient has his/her own hazard value for each model, so that patients can be assigned into two groups when a threshold of hazard is given for a model. After grouping patients, log rank test of progression free survival was performed to test difference of survival curves between two groups (low hazard and high hazard). The best threshold of hazard for each model of combination of factors was identified by sweeping threshold to calculate log rank test p-values and finding a threshold that minimized the smoothed curve constructed from the p-values, which was similar to the approach described in U. Abel, J. Berger and H. Wiebelt, “CRITLEVEL: An Exploratory Procedure for the Evaluation of Quantitative Prognostic Factors”, Methods Inf. Medicine, 23(3):154-6(1984). The best thresholds of the models divided patients into high and low hazard groups. Patients are predicted as longer PFS when their hazard value is lower than the threshold.

## COc1cc2nccc(Oc3ccc(NC(=O)NC4CC4)c(Cl)c3)c2cc1C(N)=O [E7080, 4-(3-chloro-4-(cyclopropylaminocarbonyl)aminophenoxy)-7-methoxy-6-quinolinecarboxamide]
[1]
  Progression free survival, Logrank test: better progression free survival; also recorded: better PFS
[2]; prediction model: ANG-2
  HR (low vs high hazard group, PFS): 0.545
[2]; prediction model: IL13 + MIP1a
  HR (low vs high hazard group, PFS): 1.00E−09
[2]; prediction model: IL13 + MIP1a + MIP1b
  HR (low vs high hazard group, PFS): 0.121
[2]; prediction model: NRAS mutation + ANG-2 (log10(ANg2))
  HR (low vs high hazard group, PFS): 0.115
[2]; prediction model: NRAS mutation + ANG-2 (log10(Ang290))
  HR (low vs high hazard group, PFS): 0.085
[2]; prediction model: NRAS mutation + VEGFA + ANG-2 + MIP1b + sVEGFR3
  HR (low vs high hazard group, PFS): 2.60E−10
[2]; prediction model: NRAS mutation + VEGFA + MIP1b
  HR (low vs high hazard group, PFS): 0.097
[2]; prediction model: NRAS mutation + VEGFA + MIP1b + sVEGFR3
  HR (low vs high hazard group, PFS): 0.054
[2]; prediction model: NRAS mutation, D(NRAS, MU)
  HR (low vs high hazard group, PFS): 0.124
[2]; prediction model: VEGFA
  HR (low vs high hazard group, PFS): 0.552
[2]; prediction model: VEGFA + ANG-2
  HR (low vs high hazard group, PFS): 0.386
[2]; prediction model: VEGFA + ANG-2 + GCSF
  HR (low vs high hazard group, PFS): 0.413
[2]; prediction model: mutation in any of BRAF, KRAS, NRAS + MIP1a
  HR (low vs high hazard group, PFS): 0.086
[2]; prediction model: mutation in any of BRAF, KRAS, NRAS + VEGFA + MIP1a + MIP1b + IL-6
  HR (low vs high hazard group, PFS): 1.90E−10
[2]; prediction model: mutation in any of KRAS, NRAS + ANG-2
  HR (low vs high hazard group, PFS): 0.083
[2]; prediction model: mutation in any of KRAS, NRAS, D(KRASNRAS, MU)
  HR (low vs high hazard group, PFS): 0.205
